Experiment: Storage Safety Test: impurity generation on storage at 25° C., HPLC;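 note: HPLC peak area percentages of three decomposition products, each sample run alongside a methanol-only blank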
Format: physicochemical
Conditions: HPLC percentage of area
[1] = 0 days, stored in glass bottles at 25° C.
[2] = 1.0 days, stored at 25° C., listed as 3.67 Na salt
[3] = 1.9 days, stored at 25° C., listed as 3.67 Na salt
[4] = 4.5 days, stored at 25° C., listed as 3.67 Na salt
[5] = 1.0 days, stored at 25° C., listed as 3.93 Na salt
[6] = 1.9 days, stored at 25° C., listed as 3.93 Na salt
[7] = 4.5 days, stored at 25° C., listed as 3.93 Na salt

Description: When HPLC analysis was performed under the conditions shown in Table 1 for each solution and blank solution (methanol only), three types of decomposition product were identified, and the generation ratio (converted to a monthly basis) was calculated for each of the three decomposition products (impurities A, B and C) as a percentage of area.

CCCCCCC=CCCCCCCCCCC(=O)NC1C(OCC2OC(OP(=O)([O-])[O-])C(NC(=O)CC(=O)CCCCCCCCCCC)C(OCCCCCCCCCC)C2O)OC(COC)C(OP(=O)([O-])[O-])C1OCCC(CCCCCCC)OC.[Na+].[Na+].[Na+].[Na+] (stereo not drawn) [Comparative Example 1, reference compound]
Impurity A [1]: 0.00 | Impurity B [1]: 0.18 | Impurity C [1]: 0.00 | Impurity A (1.0 days, stored at 25° C.): 0.06 | Impurity B (1.0 days, stored at 25° C.): 0.36 | Impurity C (1.0 days, stored at 25° C.): 0.00 | Impurity A (1.9 days, stored at 25° C.): 0.08 | Impurity B (1.9 days, stored at 25° C.): 0.48 | Impurity C (1.9 days, stored at 25° C.): 0.00 | Impurity A (4.5 days, stored at 25° C.): 0.12 | Impurity B (4.5 days, stored at 25° C.): 0.67 | Impurity C (4.5 days, stored at 25° C.): 0.00 | Impurity C (8.8 days, stored at 25° C.): 0.00 | Impurity C (29.5 days, stored at 25° C.): 0.03

CCCCCC/C=C\CCCCCCCCCC(=O)N[C@H]1[C@H](OC[C@H]2O[C@H](OP(=O)(O)O)[C@H](NC(=O)CC(=O)CCCCCCCCCCC)[C@@H](OCCCCCCCCCC)[C@@H]2O)O[C@H](COC)[C@@H](OP(=O)(O)O)[C@@H]1OCC[C@@H](CCCCCCC)OC [Example 2]
Impurity A [1]: 0.00 | Impurity B [1]: 0.00 | Impurity C [1]: 0.00 | Impurity A (18 days, stored at 25° C.): 0.00 | Impurity B (18 days, stored at 25° C.): 0.00 | Impurity C (18 days, stored at 25° C.): 0.17

CCCCCC/C=C\CCCCCCCCCC(=O)N[C@H]1[C@H](OC[C@H]2O[C@H](OP(=O)([O-])[O-])[C@H](NC(=O)CC(=O)CCCCCCCCCCC)[C@@H](OCCCCCCCCCC)[C@@H]2O)O[C@H](COC)[C@@H](OP(=O)([O-])[O-])[C@@H]1OCC[C@@H](CCCCCCC)OC.[Na+].[Na+].[Na+].[Na+] [Example 3]
Impurity A [1]: 0.00 | Impurity C [1]: 0.00 | Impurity B (0 days, stored in glass bottles at 25° C., listed as 3.67 Na salt): 0.08 | Impurity C (1.0 days, stored at 25° C.): 0.00 | Impurity A [2]: 0.00 | Impurity B [2]: 0.12 | Impurity C (1.9 days, stored at 25° C.): 0.00 | Impurity A [3]: 0.01 | Impurity B [3]: 0.09 | Impurity C (4.5 days, stored at 25° C.): 0.01 | Impurity A [4]: 0.01 | Impurity B [4]: 0.13 | Impurity C (8.8 days, stored at 25° C.): 0.01 | Impurity C (29.5 days, stored at 25° C., listed as 3.67 Na salt): 0.07

CCCCCC/C=C\CCCCCCCCCC(=O)N[C@H]1[C@H](OC[C@H]2O[C@H](OP(=O)([O-])[O-])[C@H](NC(=O)CC(=O)CCCCCCCCCCC)[C@@H](OCCCCCCCCCC)[C@@H]2O)O[C@H](COC)[C@@H](OP(=O)([O-])[O-])[C@@H]1OCC[C@@H](CCCCCCC)OC.[Na+].[Na+].[Na+].[Na+] [Example 4]
Impurity B (0 days, stored in glass bottles at 25° C., listed as 3.93 Na salt): 0.14 | Impurity A [5]: 0.03 | Impurity B [5]: 0.26 | Impurity A [6]: 0.04 | Impurity B [6]: 0.29 | Impurity A [7]: 0.06 | Impurity B [7]: 0.38 | Impurity C (29.5 days, stored at 25° C., listed as 3.93 Na salt): 0.06

Reference: US20100152429A1, “SODIUM SALT OF DISACCHARIDE COMPOUND, METHOD FOR PRODUCING THE SAME, AND USE OF THE SAME” (Eisai R&D Management Co., Ltd., priority 2006, published 2010)
